ChEMBL document CHEMBL1201861, “Genomics of Drug Sensitity in Cancer screening data, Wellcome Trust Sanger Institute”

Experiments:
Assay in all cases: cells
EOL1 = format: functional, cell-based; conditions: Homo sapiens;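 note: growth inhibition of EoL-1 cells, read out by a cell viability assay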
Description: SANGER: Inhibition of human EoL-1-cell cell growth in a cell viability assay.

BXPC-3 = format: functional, cell-based, Homo sapiens; conditions: Homo sapiens, BXPC-3;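 note: growth inhibition of human BxPC-3 cells, read out by a cell viability assay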
Description: SANGER: Inhibition of human BxPC-3 cell growth in a cell viability assay.

DoTc2-4510 = format: functional, cell-based, Homo sapiens; conditions: Homo sapiens, DoTc2-4510
NCI-H1792 = format: functional, cell-based, Homo sapiens; conditions: Homo sapiens, NCI-H1792;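 note: growth inhibition of human NCI-H1792 cells, read out as cell viability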
Description: SANGER: Inhibition of human NCI-H1792 cell growth in a cell viability assay.

NCI-H2347 = format: functional, cell-based, Homo sapiens; conditions: Homo sapiens, NCI-H2347;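 note: growth inhibition of the cell line, read out with a cell viability assay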
Description: SANGER: Inhibition of human NCI-H2347 cell growth in a cell viability assay.

COLO-800 = format: functional, cell-based, Homo sapiens; conditions: Homo sapiens, COLO-800;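 note: growth inhibition of COLO-800 cells, read out with a cell viability assay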
Description: SANGER: Inhibition of human COLO-800 cell growth in a cell viability assay.

CAL-39 = format: functional, cell-based, Homo sapiens; conditions: Homo sapiens, CAL-39;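 note: cell viability assay measuring growth inhibition of CAL-39 cells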
Description: SANGER: Inhibition of human CAL-39 cell growth in a cell viability assay.

SNU-387 = format: functional, cell-based, Homo sapiens; conditions: Homo sapiens, SNU-387
Description: SANGER: Inhibition of human SNU-387 cell growth in a cell viability assay.

AM-38 = format: functional, cell-based, Homo sapiens; conditions: Homo sapiens, AM-38;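 note: growth inhibition of AM-38 cells of human origin, read out by a cell viability assay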
Description: SANGER: Inhibition of human AM-38 cell growth in a cell viability assay.

HCC1954 = format: functional, cell-based, Homo sapiens; conditions: Homo sapiens, HCC1954;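 note: growth inhibition of human HCC1954 cells, read out with a cell viability assay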
Description: SANGER: Inhibition of human HCC1954 cell growth in a cell viability assay.

LAMA-84 = format: functional, cell-based; conditions: Homo sapiens;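 note: growth inhibition of LAMA-84 cells, read out with a cell viability assay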
Description: SANGER: Inhibition of human LAMA-84 cell growth in a cell viability assay.

UMC-11 = format: functional, cell-based, Homo sapiens; conditions: Homo sapiens, UMC-11;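 note: growth inhibition of UMC-11 cells, read out with a cell viability assay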
Description: SANGER: Inhibition of human UMC-11 cell growth in a cell viability assay.

KY821 = format: functional, cell-based; conditions: Homo sapiens;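 note: growth inhibition of human KY821 cells, read out by a cell viability assay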
Description: SANGER: Inhibition of human KY821 cell growth in a cell viability assay.

CAL-33 = format: functional, cell-based, Homo sapiens; conditions: Homo sapiens, CAL-33;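 note: growth inhibition of CAL-33 cells, read out with a cell viability assay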
Description: SANGER: Inhibition of human CAL-33 cell growth in a cell viability assay.

SW684 = format: functional, cell-based, Homo sapiens; conditions: Homo sapiens, SW684;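 note: growth inhibition of human SW684 cells, measured by a cell viability assay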
Description: SANGER: Inhibition of human SW684 cell growth in a cell viability assay.

EW-3 = format: functional, cell-based; conditions: Homo sapiens;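 note: cell viability assay read-out, IC50 reflects inhibition of growth of the EW-3 cells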
Description: SANGER: Inhibition of human EW-3 cell growth in a cell viability assay.

NCI-H446 = format: functional, cell-based; conditions: Homo sapiens;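 note: growth inhibition of NCI-H446 cells determined by a cell viability assay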
Description: SANGER: Inhibition of human NCI-H446 cell growth in a cell viability assay.

697 = format: functional, cell-based; conditions: Homo sapiens
Description: SANGER: Inhibition of human 697 cell growth in a cell viability assay.

NCI-H1993 = format: functional, cell-based, Homo sapiens; conditions: Homo sapiens, NCI-H1993;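 note: growth inhibition of the cancer cell line, assessed with a cell viability assay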
Description: SANGER: Inhibition of human NCI-H1993 cell growth in a cell viability assay.

AN3-CA = format: functional, cell-based; conditions: Homo sapiens;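 note: growth inhibition of human AN3-CA cells measured by a cell viability assay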
Description: SANGER: Inhibition of human AN3-CA cell growth in a cell viability assay.

EC-GI-10 = format: functional, cell-based, Homo sapiens; conditions: Homo sapiens, EC-GI-10
Description: SANGER: Inhibition of human EC-GI-10 cell growth in a cell viability assay.

TE-5 = format: functional, cell-based, Homo sapiens; conditions: Homo sapiens, TE-5;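 note: inhibition of cell growth, read out by a cell viability assay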
Description: SANGER: Inhibition of human TE-5 cell growth in a cell viability assay.

DMS-114 = format: functional, cell-based, Homo sapiens; conditions: Homo sapiens, DMS-114
HuTu80 = format: functional, cell-based, Homo sapiens, HUTU-80; conditions: Homo sapiens, HuTu80;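 note: growth inhibition of HuTu80 human cells, determined with a cell viability readout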
Description: SANGER: Inhibition of human HUTU-80 cell growth in a cell viability assay.

KYSE-150 cell line = format: functional, cell-based, Homo sapiens; conditions: Homo sapiens, KYSE-150;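 note: growth inhibition of human KYSE-150 cells, read out with a cell viability assay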
Description: SANGER: Inhibition of human KYSE-150 cell growth in a cell viability assay.

NCI-H2122 = format: functional, cell-based, Homo sapiens; conditions: Homo sapiens, NCI-H2122;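 note: growth inhibition of the cells, read out with a cell viability assay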
Description: SANGER: Inhibition of human NCI-H2122 cell growth in a cell viability assay.

A-375 = format: functional, cell-based, Homo sapiens; conditions: Homo sapiens, A-375;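 note: growth inhibition of A375 cells, read out with a cell viability assay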
Description: SANGER: Inhibition of human A375 cell growth in a cell viability assay.

MCF7 = format: functional, cell-based, Homo sapiens; conditions: Homo sapiens, MCF7;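 note: growth inhibition of human MCF7 cells, read out with a cell viability assay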
Description: SANGER: Inhibition of human MCF7 cell growth in a cell viability assay.

C3A = format: functional, cell-based, Homo sapiens; conditions: Homo sapiens, C3A;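 note: growth inhibition of C3A human cells, quantified with a cell viability readout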
Description: SANGER: Inhibition of human C3A cell growth in a cell viability assay.

NCI-H1299 = format: functional, cell-based, Homo sapiens; conditions: Homo sapiens, NCI-H1299;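 note: growth inhibition of human NCI-H1299 cells, read out by a cell viability assay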
Description: SANGER: Inhibition of human NCI-H1299 cell growth in a cell viability assay.

Calu-3 = format: functional, cell-based, Homo sapiens; conditions: Homo sapiens, Calu-3;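 note: growth inhibition of human Calu-3 cells, determined with a cell viability assay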
Description: SANGER: Inhibition of human Calu-3 cell growth in a cell viability assay.

A673 = format: functional, cell-based, Homo sapiens; conditions: Homo sapiens, A673;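 note: growth inhibition of human A673 cells, read out through a cell viability assay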
Description: SANGER: Inhibition of human A673 cell growth in a cell viability assay.

SW780 = format: functional, cell-based, Homo sapiens; conditions: Homo sapiens, SW780;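 note: growth inhibition of the cells, read out with a cell viability assay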
Description: SANGER: Inhibition of human SW780 cell growth in a cell viability assay.

OVCAR-8 = format: functional, cell-based, Homo sapiens; conditions: Homo sapiens, OVCAR-8;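 note: growth inhibition of human OVCAR-8 cells, read out by a cell viability assay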
Description: SANGER: Inhibition of human OVCAR-8 cell growth in a cell viability assay.

EW-13 = format: functional, cell-based; conditions: Homo sapiens;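 note: growth inhibition of EW-13 cells, read out with a cell viability assay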
Description: SANGER: Inhibition of human EW-13 cell growth in a cell viability assay.

SJSA-1 = format: functional, cell-based, Homo sapiens; conditions: Homo sapiens, SJSA-1;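 note: growth inhibition of human SJSA-1 cells, read out through a cell viability measurement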
Description: SANGER: Inhibition of human SJSA-1 cell growth in a cell viability assay.

SNU-449 = format: functional, cell-based, Homo sapiens; conditions: Homo sapiens, SNU-449
Description: SANGER: Inhibition of human SNU-449 cell growth in a cell viability assay.

TGBC24TKB = format: functional, cell-based, Homo sapiens; conditions: Homo sapiens, TGBC24TKB;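 note: growth inhibition of human TGBC24TKB cells, read out with a cell viability assay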
Description: SANGER: Inhibition of human TGBC24TKB cell growth in a cell viability assay.

SW1573 = format: functional, cell-based, Homo sapiens; conditions: Homo sapiens, SW1573;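 note: growth inhibition of SW1573 cells, read out with a cell viability assay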
Description: SANGER: Inhibition of human SW1573 cell growth in a cell viability assay.

CAPAN-1 = format: functional, cell-based, Homo sapiens; conditions: Homo sapiens, CAPAN-1;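 note: growth suppression of CAPAN-1 cells, read out by a cell viability assay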
Description: SANGER: Inhibition of human CAPAN-1 cell growth in a cell viability assay.

LU-134-A = format: functional, cell-based; conditions: Homo sapiens
Description: SANGER: Inhibition of human LU-134-A cell growth in a cell viability assay.

HCC1806 = format: functional, cell-based, Homo sapiens; conditions: Homo sapiens, HCC1806;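 note: growth inhibition of the cancer cell line, determined with a cell viability assay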
Description: SANGER: Inhibition of human HCC1806 cell growth in a cell viability assay.

HT-1376 = format: functional, cell-based, Homo sapiens; conditions: Homo sapiens, HT-1376
Description: SANGER: Inhibition of human HT-1376 cell growth in a cell viability assay.

A2058 = format: functional, cell-based; conditions: Homo sapiens;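 note: reduction of A2058 cell growth, read out with a viability assay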
Description: SANGER: Inhibition of human A2058 cell growth in a cell viability assay.

MKN-28 = format: functional, cell-based, Homo sapiens; conditions: Homo sapiens, MKN-28;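 note: cell viability assay read-out, IC50 reflects suppression of growth of human MKN-28 cells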
Description: SANGER: Inhibition of human MKN28 cell growth in a cell viability assay.

GT3TKB = format: functional, cell-based, Homo sapiens; conditions: Homo sapiens, GT3TKB;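 note: growth inhibition of the cell line, read out with a cell viability assay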
Description: SANGER: Inhibition of human GT3TKB cell growth in a cell viability assay.

COR-L105 = format: functional, cell-based, Homo sapiens; conditions: Homo sapiens, COR-L105;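 note: cell growth inhibition determined with a viability assay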
Description: SANGER: Inhibition of human COR-L105 cell growth in a cell viability assay.

SK-N-DZ = format: functional, cell-based, Homo sapiens; conditions: Homo sapiens, SK-N-DZ;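 note: growth inhibition of the cancer cell line, read out through a viability assay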
Description: SANGER: Inhibition of human SK-N-DZ cell growth in a cell viability assay.

ES8 = format: functional, cell-based, Homo sapiens; conditions: Homo sapiens, ES8;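 note: growth inhibition of human ES8 cells, read out with a cell viability assay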
Description: SANGER: Inhibition of human ES8 cell growth in a cell viability assay.

KURAMOCHI = format: functional, cell-based; conditions: Homo sapiens;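 note: growth inhibition of KURAMOCHI cells, read out with a cell viability assay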
Description: SANGER: Inhibition of human KURAMOCHI cell growth in a cell viability assay.

`Nc1ccn([C@@H]2O[C@H](CO)[C@@H](O)[C@@H]2O)c(=O)n1` [CYTARABINE] showed an IC50 (EOL1) of 0.803 µM, an IC50 (BXPC-3) of over 2 µM and an IC50 (DoTc2-4510) of 1.6 µM. It also gave an IC50 (NCI-H1792) of 1.42 µM, an IC50 (NCI-H2347) of over 2 µM and an IC50 (COLO-800) of 0.425 µM. The IC50 (CAL-39) was 0.998 µM, the IC50 (SNU-387) was 0.289 µM and the IC50 (AM-38) was 1.47 µM. The IC50 (HCC1954) was over 2 µM, the IC50 (LAMA-84) was 0.335 µM and the IC50 (UMC-11) was over 2 µM. It also gave an IC50 (KY821) of over 2 µM, an IC50 (CAL-33) of 1.18 µM and an IC50 (SW684) of over 2 µM. The IC50 (EW-3) was 0.83 µM, the IC50 (NCI-H446) was over 2 µM and the IC50 697 was 0.0106 µM. For the same molecule, the IC50 (NCI-H1993) was over 2 µM, the IC50 (AN3-CA) was 1.84 µM and the IC50 (EC-GI-10) was 0.557 µM. For the same molecule, the IC50 (TE-5) was 0.381 µM, the IC50 (DMS-114) was 1.68 µM and the IC50 (HuTu80) was 0.561 µM. For the same molecule, the IC50 (KYSE-150 cell line) was over 2 µM, the IC50 (NCI-H2122) was 0.43 µM and the IC50 (A-375) was 0.396 µM. The IC50 (MCF7) was over 2 µM, the IC50 (C3A) was over 2 µM and the IC50 (NCI-H1299) was 0.672 µM. The IC50 (Calu-3) was over 2 µM, the IC50 (A673) was 0.224 µM and the IC50 (SW780) was 1.32 µM. It also gave an IC50 (OVCAR-8) of 0.211 µM, an IC50 (EW-13) of 1.98 µM and an IC50 (SJSA-1) of 0.235 µM. It also gave an IC50 (SNU-449) of over 2 µM, an IC50 (TGBC24TKB) of 1.85 µM and an IC50 (SW1573) of over 2 µM. It also gave an IC50 (CAPAN-1) of over 2 µM, an IC50 (LU-134-A) of over 2 µM and an IC50 (HCC1806) of 0.191 µM. For the same molecule, the IC50 (HT-1376) was 1.68 µM, the IC50 (A2058) was 0.687 µM and the IC50 (MKN-28) was over 2 µM. The IC50 (GT3TKB) was 0.341 µM, the IC50 (COR-L105) was 0.16 µM and the IC50 (SK-N-DZ) was 1.07 µM. It also gave an IC50 (ES8) of 0.124 µM.

With `O=C(NOCC1CC1)c1ccc(F)c(F)c1Nc1ccc(I)cc1Cl` [CI-1040] the IC50 (EOL1) was 0.0415 µM, the IC50 (BXPC-3) was over 10 µM and the IC50 (DoTc2-4510) was 7.12 µM. It also gave an IC50 (NCI-H1792) of 9.45 µM, an IC50 (NCI-H2347) of over 10 µM and an IC50 (COLO-800) of over 10 µM. For the same molecule, the IC50 (CAL-39) was 2.9 µM, the IC50 (SNU-387) was over 10 µM and the IC50 (AM-38) was over 10 µM. It also gave an IC50 (HCC1954) of over 10 µM, an IC50 (LAMA-84) of 3.14 µM and an IC50 (UMC-11) of over 10 µM. For the same molecule, the IC50 (KY821) was 0.379 µM, the IC50 (CAL-33) was 5.12 µM and the IC50 (SW684) was over 10 µM. It also gave an IC50 (KURAMOCHI) of over 10 µM, an IC50 (EW-3) of over 10 µM and an IC50 (NCI-H446) of over 10 µM. The IC50 697 was 3.7 µM, the IC50 (NCI-H1993) was over 10 µM and the IC50 (AN3-CA) was 6.69 µM. For the same molecule, the IC50 (EC-GI-10) was over 10 µM, the IC50 (TE-5) was 8.42 µM and the IC50 (DMS-114) was over 10 µM. The IC50 (HuTu80) was over 10 µM, the IC50 (KYSE-150 cell line) was over 10 µM and the IC50 (NCI-H2122) was 6.62 µM. The IC50 (A-375) was 1.9 µM, the IC50 (MCF7) was over 10 µM and the IC50 (C3A) was over 10 µM. For the same molecule, the IC50 (NCI-H1299) was over 10 µM, the IC50 (Calu-3) was over 10 µM and the IC50 (A673) was 8.63 µM. The IC50 (SW780) was 3.14 µM, the IC50 (OVCAR-8) was over 10 µM and the IC50 (EW-13) was 2.56 µM. For the same molecule, the IC50 (SJSA-1) was over 10 µM, the IC50 (SNU-449) was over 10 µM and the IC50 (TGBC24TKB) was over 10 µM. It also gave an IC50 (SW1573) of over 10 µM, an IC50 (CAPAN-1) of over 10 µM and an IC50 (LU-134-A) of over 10 µM. The IC50 (HCC1806) was over 10 µM, the IC50 (HT-1376) was over 10 µM and the IC50 (A2058) was 2.19 µM. For the same molecule, the IC50 (MKN-28) was over 10 µM, the IC50 (GT3TKB) was 5.47 µM and the IC50 (COR-L105) was 6.65 µM. For the same molecule, the IC50 (SK-N-DZ) was over 10 µM and the IC50 (ES8) was over 10 µM.

Molecule `Cn1cc(C2=C(c3ccc(Cl)cc3Cl)C(=O)NC2=O)c2ccccc21` [SB-216763] has an IC50 (BXPC-3) of over 10 µM, an IC50 (DoTc2-4510) of over 10 µM and an IC50 (NCI-H1792) of over 10 µM. For the same molecule, the IC50 (NCI-H2347) was over 10 µM, the IC50 (COLO-800) was over 10 µM and the IC50 (CAL-39) was over 10 µM. The IC50 (SNU-387) was over 10 µM, the IC50 (AM-38) was over 10 µM and the IC50 (HCC1954) was over 10 µM. For the same molecule, the IC50 (LAMA-84) was over 10 µM, the IC50 (UMC-11) was over 10 µM and the IC50 (CAL-33) was over 10 µM. It also gave an IC50 (SW684) of over 10 µM, an IC50 (KURAMOCHI) of over 10 µM and an IC50 (NCI-H446) of over 10 µM. The IC50 697 was over 10 µM, the IC50 (NCI-H1993) was 8.37 µM and the IC50 (AN3-CA) was over 10 µM. It also gave an IC50 (EC-GI-10) of over 10 µM, an IC50 (TE-5) of over 10 µM and an IC50 (DMS-114) of over 10 µM. For the same molecule, the IC50 (HuTu80) was over 10 µM, the IC50 (KYSE-150 cell line) was over 10 µM and the IC50 (NCI-H2122) was over 10 µM. For the same molecule, the IC50 (A-375) was over 10 µM, the IC50 (MCF7) was over 10 µM and the IC50 (C3A) was over 10 µM. The IC50 (NCI-H1299) was over 10 µM, the IC50 (Calu-3) was over 10 µM and the IC50 (A673) was over 10 µM. For the same molecule, the IC50 (SW780) was over 10 µM, the IC50 (OVCAR-8) was over 10 µM and the IC50 (EW-13) was over 10 µM. The IC50 (SJSA-1) was over 10 µM, the IC50 (SNU-449) was over 10 µM and the IC50 (TGBC24TKB) was over 10 µM. It also gave an IC50 (SW1573) of over 10 µM, an IC50 (CAPAN-1) of over 10 µM and an IC50 (LU-134-A) of over 10 µM. It also gave an IC50 (HCC1806) of over 10 µM, an IC50 (HT-1376) of over 10 µM and an IC50 (A2058) of over 10 µM. For the same molecule, the IC50 (MKN-28) was over 10 µM, the IC50 (GT3TKB) was over 10 µM and the IC50 (COR-L105) was over 10 µM. For the same molecule, the IC50 (SK-N-DZ) was over 10 µM and the IC50 (ES8) was over 10 µM.
